Measurements reported in patent US6740642B2, “Macrolides with antibacterial activity” (BAsilea Parmaceutica AG, priority 2000, dated 2004).
In brackets after ≈: the same amount, converted by molar mass.

How the values were obtained:
[1] = tested on: St. pneumoniae 1/1; assay: MIC, standard microdilution; assay type: cell-based, Streptococcus pneumoniae; details: Streptococcus pneumoniae, read-out: minimum inhibitory concentration (MIC)
How it was run: (§1)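 MIC by microdilution, NCCLS M7-A4 procedure. Aerobic bacterial growth conditions.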

[2] = tested on: St. pneumoniae 12288; assay: MIC, standard microdilution; assay type: cell-based, Streptococcus pneumoniae; details: Streptococcus pneumoniae, read-out: minimum inhibitory concentration (MIC)
How it was run: as §1

[3] = tested on: St. pneumoniae SL199T; assay: MIC, standard microdilution; assay type: cell-based, Streptococcus pneumoniae; details: Streptococcus pneumoniae, read-out: minimum inhibitory concentration (MIC)
How it was run: as §1

[4] = tested on: St. pneumoniae 1/4; assay: MIC, standard microdilution; assay type: cell-based, Streptococcus pneumoniae; details: Streptococcus pneumoniae, read-out: minimum inhibitory concentration (MIC)
How it was run: as §1

[5] = tested on: E. coli ATCC25922; assay: MIC, standard microdilution; assay type: cell-based; details: Escherichia coli, read-out: minimum inhibitory concentration (MIC)
How it was run: as §1

[6] = tested on: P. aeruginosa ATCC27853 (+Ery. 32 μg/ml); assay: MIC, standard microdilution; assay type: cell-based
How it was run: as §1

[7] = tested on: H. influenzae 11; assay: MIC, agar dilution, HTM medium; assay type: cell-based, Haemophilus influenzae; details: Haemophilus influenzae, read-out: MIC
Description: (§2) The biological activities of compounds of the present invention against Haemophilus influenzae have been determined by standard agar dilution method using HTM medium (National Committee for Clinical Laboratory Standards. 1997. Methods for dilution antimicrobial susceptibility tests for bacteria that grow aerobically, 4th edition. Approved standard M7-A4. National Committee for Clinical Laboratory Standards, Wayne, Pa.).

[8] = tested on: H. influenzae B 1501; assay: MIC, agar dilution, HTM medium; assay type: cell-based, Haemophilus influenzae; details: Haemophilus influenzae, B1501, read-out: MIC
Description: as §2

[9] = tested on: H. influenzae Christy; assay: MIC, agar dilution, HTM medium; assay type: cell-based, Haemophilus influenzae; details: Haemophilus influenzae, read-out: MIC
Description: as §2

[10] = tested on: H. influenzae H36 ODL; assay: MIC, agar dilution, HTM medium; assay type: cell-based, Haemophilus influenzae; details: Haemophilus influenzae, H36ODL, read-out: MIC
Description: as §2

[11] = tested on: H. influenzae H28 HEL; assay: MIC, agar dilution, HTM medium; assay type: cell-based, Haemophilus influenzae; details: Haemophilus influenzae, H28HEL, read-out: MIC
Description: as §2

[12] = tested on: H. influenzae QK 50; assay: MIC, agar dilution, HTM medium; assay type: cell-based, Haemophilus influenzae; details: Haemophilus influenzae, QK50, read-out: MIC
Description: as §2

[13] = tested on: H. influenzae 3457; assay: MIC, agar dilution, HTM medium; assay type: cell-based, Haemophilus influenzae; details: Haemophilus influenzae, read-out: MIC
Description: as §2

[14] = tested on: H. influenzae H13 LAH; assay: MIC, agar dilution, HTM medium; assay type: cell-based, Haemophilus influenzae; details: Haemophilus influenzae, H13LAH, read-out: MIC
Description: as §2

[15] = tested on: H. influenzae 12214; assay: MIC, agar dilution, HTM medium; assay type: cell-based, Haemophilus influenzae; details: Haemophilus influenzae, read-out: MIC
Description: as §2

[16] = tested on: H. influenzae 1; assay: MIC, agar dilution, HTM medium; assay type: cell-based, Haemophilus influenzae; details: Haemophilus influenzae, read-out: MIC
Description: as §2

[17] = tested on: H. influenzae 3640; assay: MIC, agar dilution, HTM medium; assay type: cell-based, Haemophilus influenzae; details: Haemophilus influenzae, read-out: MIC
Description: as §2

[18] = tested on: H. influenzae 23145; assay: MIC, agar dilution, HTM medium; assay type: cell-based, Haemophilus influenzae; details: Haemophilus influenzae, read-out: MIC
Description: as §2

[19] = tested on: H. influenzae ATCC 49247; assay: MIC, agar dilution, HTM medium; assay type: cell-based, Haemophilus influenzae; details: Haemophilus influenzae, ATCC49247, read-out: MIC
Description: as §2

[20] = tested on: H. influenzae QK 12/87; assay: MIC, agar dilution, HTM medium; assay type: cell-based, Haemophilus influenzae; details: Haemophilus influenzae, QK12/87, read-out: MIC
Description: as §2

[21] = tested on: H. influenzae ATCC 9334; assay: MIC, agar dilution, HTM medium; assay type: cell-based, Haemophilus influenzae; details: Haemophilus influenzae, ATCC9334, read-out: MIC
Description: as §2

[22] = tested on: H. influenzae 4139; assay: MIC, agar dilution, HTM medium; assay type: cell-based, Haemophilus influenzae; details: Haemophilus influenzae, read-out: MIC
Description: as §2

[23] = tested on: H. influenzae Rd KW20; assay: MIC, agar dilution, HTM medium; assay type: cell-based, Haemophilus influenzae; details: Haemophilus influenzae, RDKW20, read-out: MIC
Description: as §2

[24] = tested on: H. influenzae 23369; assay: MIC, agar dilution, HTM medium; assay type: cell-based, Haemophilus influenzae; details: Haemophilus influenzae, read-out: MIC
Description: as §2

[25] = tested on: H. influenzae 3201; assay: MIC, agar dilution, HTM medium; assay type: cell-based, Haemophilus influenzae; details: Haemophilus influenzae, read-out: MIC
Description: as §2

[26] = tested on: H. influenzae 2947; assay: MIC, agar dilution, HTM medium; assay type: cell-based, Haemophilus influenzae; details: Haemophilus influenzae, read-out: MIC
Description: as §2

[27] = tested on: H. influenzae H20 HDL; assay: MIC, agar dilution, HTM medium; assay type: cell-based, Haemophilus influenzae; details: Haemophilus influenzae, H20HDL, read-out: MIC
Description: as §2

[28] = tested on: S. aureus ATCC29213; assay: MIC, standard microdilution; assay type: cell-based, Staphylococcus aureus; details: Staphylococcus aureus, read-out: minimum inhibitory concentration (MIC)
How it was run: as §1

[29] = tested on: S. aureus 745; assay: MIC, standard microdilution; assay type: cell-based, Staphylococcus aureus; details: Staphylococcus aureus, read-out: minimum inhibitory concentration (MIC)
How it was run: as §1

[30] = tested on: S. aureus 1086; assay: MIC, standard microdilution; assay type: cell-based, Staphylococcus aureus; details: Staphylococcus aureus, read-out: minimum inhibitory concentration (MIC)
How it was run: as §1

CC[C@H]1OC(=O)[C@H](C)[C@@H](O[C@H]2C[C@@](C)(OC)[C@@H](O)[C@H](C)O2)[C@H](C)[C@@H](O[C@@H]2O[C@H](C)C[C@H](N(C)C)[C@H]2O)[C@](C)(O)C[C@@H](C)C(=O)[C@H](C)[C@@H](O)[C@]1(C)O [Erythromycin (1), erythromycin A]
MIC [1]: ≤ 0.12 µg/mL | MIC [2]: > 32 µg/mL | MIC [3]: > 32 µg/mL | MIC [4]: 32 µg/mL (≈ 43.6 µM) | MIC [5]: > 16 µg/mL | minimum inhibitory concentration (MIC) [6]: >16 µg/mL | MIC [7]: 4 µg/mL (≈ 5.45 µM) | MIC [8]: 4 µg/mL (≈ 5.45 µM) | MIC [9]: 4 µg/mL (≈ 5.45 µM) | MIC [10]: 4 µg/mL (≈ 5.45 µM) | MIC [11]: 2 µg/mL (≈ 2.73 µM) | MIC [12]: 4 µg/mL (≈ 5.45 µM) | MIC [13]: 0.5 µg/mL (≈ 0.681 µM) | MIC [14]: 4 µg/mL (≈ 5.45 µM) | MIC [15]: 4 µg/mL (≈ 5.45 µM) | MIC [16]: 4 µg/mL (≈ 5.45 µM) | MIC [17]: 2 µg/mL (≈ 2.73 µM) | MIC [18]: 4 µg/mL (≈ 5.45 µM) | MIC [19]: 4 µg/mL (≈ 5.45 µM) | MIC [20]: 2 µg/mL (≈ 2.73 µM) | MIC [21]: 4 µg/mL (≈ 5.45 µM) | MIC [22]: 1 µg/mL (≈ 1.36 µM) | MIC [23]: 4 µg/mL (≈ 5.45 µM) | MIC [24]: 4 µg/mL (≈ 5.45 µM) | MIC [25]: 4 µg/mL (≈ 5.45 µM) | MIC [26]: 4 µg/mL (≈ 5.45 µM) | MIC [27]: 2 µg/mL (≈ 2.73 µM) | MIC [28]: 0.5 µg/mL (≈ 0.681 µM) | MIC [29]: > 64 µg/mL | MIC [30]: > 32 µg/mL

CC[C@H]1OC(=O)[C@H](C)C(=O)[C@H](C)[C@@H](O[C@@H]2O[C@H](C)C[C@H](N(C)C)[C@H]2O)[C@](C)(OC)C[C@@H](C)C(=O)[C@H](C)[C@H]2N(CCCCn3cnc(-c4cccnc4)c3)C(=O)O[C@]12C [Telithromycin (4), telithromycin]
MIC [1]: ≤ 0.12 µg/mL | MIC [2]: 0.25 µg/mL (≈ 0.308 µM) | MIC [3]: ≤ 0.12 µg/mL | MIC [4]: ≤ 0.12 µg/mL | MIC [5]: 16 µg/mL (≈ 19.7 µM) | minimum inhibitory concentration (MIC) [6]: >16 µg/mL | MIC [7]: 4 µg/mL (≈ 4.93 µM) | MIC [8]: 2 µg/mL (≈ 2.46 µM) | MIC [9]: 4 µg/mL (≈ 4.93 µM) | MIC [10]: 4 µg/mL (≈ 4.93 µM) | MIC [11]: 2 µg/mL (≈ 2.46 µM) | MIC [12]: 2 µg/mL (≈ 2.46 µM) | MIC [13]: 0.25 µg/mL (≈ 0.308 µM) | MIC [14]: 2 µg/mL (≈ 2.46 µM) | MIC [15]: 4 µg/mL (≈ 4.93 µM) | MIC [16]: 4 µg/mL (≈ 4.93 µM) | MIC [17]: 2 µg/mL (≈ 2.46 µM) | MIC [18]: 4 µg/mL (≈ 4.93 µM) | MIC [19]: 4 µg/mL (≈ 4.93 µM) | MIC [20]: 1 µg/mL (≈ 1.23 µM) | MIC [21]: 2 µg/mL (≈ 2.46 µM) | MIC [22]: 2 µg/mL (≈ 2.46 µM) | MIC [23]: 4 µg/mL (≈ 4.93 µM) | MIC [24]: 4 µg/mL (≈ 4.93 µM) | MIC [25]: 4 µg/mL (≈ 4.93 µM) | MIC [26]: 4 µg/mL (≈ 4.93 µM) | MIC [27]: 2 µg/mL (≈ 2.46 µM) | MIC [28]: ≤ 0.12 µg/mL | MIC [29]: > 64 µg/mL | MIC [30]: ≤ 0.12 µg/mL
